Measurements as given in patent publication US11000511B2, “Chemical compounds as antibiotics” (priority 2017, dated 2021).

Legend:
[1] = target: T1, purified LasB protein from P. aeruginosa (Pseudomonas aeruginosa, UniProt P14756); experiment: Fluorometric assay to determine Ki (Assay 1); type: biochemical; conditions: Ki (μM) Assay 1, purified LasB, substrate Abz-Ala-Gly-Leu-Ala-p-Nitro-Benzyl-Amide 250 μM, Ki calculated from IC50; inhibitor 0.006 to 200 μM
T1 construct: purchased Merck or Charles River Laboratories
T1 sequence (P14756 198-498): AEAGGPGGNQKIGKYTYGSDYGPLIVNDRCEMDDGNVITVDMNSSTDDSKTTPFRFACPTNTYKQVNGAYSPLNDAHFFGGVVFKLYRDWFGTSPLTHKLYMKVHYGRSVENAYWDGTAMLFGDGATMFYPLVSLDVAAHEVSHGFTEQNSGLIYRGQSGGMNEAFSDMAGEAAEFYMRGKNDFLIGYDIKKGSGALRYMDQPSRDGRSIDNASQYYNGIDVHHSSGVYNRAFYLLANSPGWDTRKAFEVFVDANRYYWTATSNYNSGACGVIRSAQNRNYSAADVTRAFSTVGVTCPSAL
Description: (§1) Experiments were therefore conducted (1) to measure the potency of inhibition of compounds of the invention against purified Pseudomonas aeruginosa LasB enzyme and also experiments were conducted (2) to measure the ability of compounds of the invention to inhibit LasB-catalysed elastin degradation. The first assay uses a commercial fluorescent synthetic peptide and purified LasB enzyme. The LasB hydrolysis kinetics are measured allowing the determination of the IC50 and Ki of the inhibitors; the second is a more physiological assay using dialysed Pseudomonas aeruginosa supernatant as source of enzyme, plus its natural substrate Elastin. It is an “end point assay” that determines the percentage of LasB inhibition by each compound for one particular time point and inhibitor concentration. Technical details are described below:
This assay uses commercially available substrate (Abz-Ala-Gly-Leu-Ala-p-Nitro-Benzyl-Amide (Ex: 340 nm, Em: 415 nm) from Peptide International) and purified LasB protein from P. aeruginosa (provided by Merck or Charles River Laboratories). It is performed to determine LasB elastase activity and assess compound inhibition in 96-well plate format. Some compounds of Formula (I) were assessed using the method of Assay 1 (described below). Other compounds of Formula (I) were assessed using the alternative but equivalent method of Assay 2 (described below).
Method: 10 to 140 ng/ml purified LasB is incubated with 250 μM Abz-Ala-Gly-Leu-Ala-p-Nitro-Benzyl-Amide in 50 mM Tris-HCl pH 7.4, 2.5 mM CaCl2), 0.01% of Triton X100 at 37° C. LasB activity (corresponding to fluorescence emission induced by substrate hydrolysis) is measured over 30 min at 37° C. with a fluorescence plate reader such as the Perkin Elmer Envision or similar. Different range of inhibitor concentrations are routinely assessed depending of inhibitor potency from 0.006 to 200 μM (Assay 1; 2-fold dilutions series) or from 0.0016 to 200 μM (Assay 2; 2-fold dilutions series) in order to determine IC50.
The equation used to calculate the Ki from IC50 is: Ki=IC50/(1+([S]/Km)) where [S]=250 μM and Km=214 μM.

[2] = target: T2, LasB elastase activity in dialysed supernatant from P. aeruginosa strain PA01 (Pseudomonas aeruginosa, UniProt P14756); experiment: Elastin Congo Red assay to determine % inhibition (Assay 1); type: biochemical; conditions: read-out: Elastin hydrolysis % inhibition @ 50/25 μM inhibitor concentration Assay 1
T2 construct: uses as source of enzyme dialysed supernatant from P. aeruginosa; endogenous in cells; host or cells: P. aeruginosa strain PA01 culture supernatant, filtered and dialysed
T2 sequence (P14756 198-498): as above
Description: as §1
The Elastin assay uses as source of enzyme dialysed supernatant from P. aeruginosa and the elastin congo red as substrate. The natural LasB substrate, elastin, is complexed with the congo red dye (Elastin Congo Red, ECR). The elastolysis activity from the culture supernatant will degrade elastin and release the congo red dye into the supernatant. This red dye release can be measured with a spectrophotometer. Some compounds of Formula (I) were assessed using the method of Assay 1 (described below). Other compounds of Formula (I) were assessed using the alternative but equivalent method of Assay 2 (described below).
Method (Assay 1): To determine LasB elastase activity and assess compound inhibition, an overnight culture of P. aeruginosa strain PA01 is diluted thousand-fold in LB medium. This diluted solution is incubated during 19 hours in a shaking incubator. Culture supernatants are recovered by centrifugation and filtrated through a […] filter. These supernatants are dialysed (filtration molecules <20 kDa) into a 50 mM Tris pH 7.4, 2.5 mM CaCl2 solution at 4° C. under agitation for 24 hours. Supernatant dialysed is then mixed volume/volume with the ECR suspension (20 mg/mL of ECR in 100 mM Tris buffer supplemented with 1 mM CaCl2) supplemented with TritonX 100 (final concentration of 0.01%) in presence of different concentrations of compound (routinely 50 and 25 μM). The mixed reaction is then incubated for 24 hours in a 37° shaking incubator. As a negative control, the mixed supernatant is replaced by Tris solution (50 mM Tris pH 7.4, 2.5 mM CaCl2). The reaction supernatant is recovered by centrifugation and the release of congo red is measured by its absorbance at OD520. Percentage inhibition is determined using the following equation: (OD520 value of DMSO SN−OD520 value of LB)−(OD520 value of Compound SN−OD520 value of LB)/(OD520 value of DMSO SN−OD520 value of LB)×100.

| Structure (SMILES) | Ki [1] | inhibition at 50 µM [2] |
| --- | --- | --- |
| O=C(O)CC1(C(=O)NCCc2ccc(O)cc2)Cc2ccccc2C1 [Example 13, 2-[2-[2-(4-hydroxyphenyl)ethylcarbamoyl]indan-2-yl]acetic acid] | 2 to 10 µM | 30 to 60% |
| O=C(O)CC1(C(=O)NCCc2c[nH]c3ccccc23)Cc2ccccc2C1 [Example 14, 2-[2-[2-(1H-indol-3-yl)ethylcarbamoyl]indan-2-yl]acetic acid] | < 0.3 µM | 30 to 60% |
| O=C(O)CC1(C(=O)NCc2ccccc2)Cc2ccccc2C1 [Example 16, 2-[2-(benzylcarbamoyl)indan-2-yl]acetic acid] | 2 to 10 µM | 30 to 60% |
| O=C(O)CC1(C(=O)NCC2COc3ccccc3O2)Cc2ccccc2C1 (stereo not drawn) [Example 17, 2-[2-(2,3-dihydro-1,4-benzodioxin-3-ylmethylcarbamoyl)indan-2-yl]acetic acid] | 0.3 to 2 µM | 30 to 60% |
| O=C(O)CC1(C(=O)NCc2cc3cc(Br)ccc3o2)Cc2ccccc2C1 [Example 18, 2-[2-[(5-bromobenzofuran-2-yl)methylcarbamoyl]indan-2-yl]acetic acid] | < 0.3 µM | > 60% |
| O=C(O)CC1(C(=O)NCCc2cc3ccccc3o2)Cc2ccccc2C1 [Example 19, 2-[2-[2-(benzofuran-2-yl)ethylcarbamoyl]indan-2-yl]acetic acid] | 2 to 10 µM | 15 to 30% |
| Cc1oc2ccccc2c1CNC(=O)C1(CC(=O)O)Cc2ccccc2C1 [Example 20, 2-[2-[(2-methylbenzofuran-3-yl)methylcarbamoyl]indan-2-yl]acetic acid] | 2 to 10 µM | 30 to 60% |
| Cn1cnc(CNC(=O)C2(CC(=O)O)Cc3ccccc3C2)c1 [Example 21, 2-[2-[(1-methylimidazol-4-yl)methylcarbamoyl]indan-2-yl]acetic acid] | 2 to 10 µM | 30 to 60% |
| O=C(O)CC1(C(=O)NCCc2nc3ccccc3s2)Cc2ccccc2C1 [Example 22, 2-[2-[2-(1,3-benzothiazol-2-yl)ethylcarbamoyl]indan-2-yl]acetic acid] | 2 to 10 µM | 15 to 30% |
| O=C(O)CC1(C(=O)NCc2cc3ccccc3s2)Cc2ccccc2C1 [Example 23, 2-[2-(benzothiophen-2-ylmethylcarbamoyl)indan-2-yl]acetic acid] | < 0.3 µM | 30 to 60% |
| COc1ccc2sc(CNC(=O)C3(CC(=O)O)Cc4ccccc4C3)nc2c1 [Example 24, 2-[2-[(5-methoxy-1,3-benzothiazol-2-yl)methylcarbamoyl]indan-2-yl]acetic acid] | < 0.3 µM | > 60% |
| O=C(O)CC1(C(=O)NCc2nc3cc(Cl)ccc3s2)Cc2ccccc2C1 [Example 25, 2-[2-[(5-chloro-1,3-benzothiazol-2-yl)methylcarbamoyl]indan-2-yl]acetic acid] | < 0.3 µM | > 60% |
| O=C(O)CC1(C(=O)NCc2c[nH]c3ccccc23)Cc2ccccc2C1 [Example 26, 2-[2-(1H-indol-3-ylmethylcarbamoyl)indan-2-yl]acetic acid] | 2 to 10 µM | 30 to 60% |
| O=C(O)CC1(C(=O)NCCc2cc3ccccc3[nH]2)Cc2ccccc2C1 [Example 27, 2-[2-[2-(1H-indol-2-yl)ethylcarbamoyl]indan-2-yl]acetic acid] | 2 to 10 µM | 15 to 30% |
| O=C(O)CC1(C(=O)NCc2cc3ccccc3[nH]2)Cc2ccccc2C1 [Example 29, 2-[2-(1H-indol-2-ylmethylcarbamoyl)indan-2-yl]acetic acid] | < 0.3 µM | 30 to 60% |
| O=C(O)CC1(C(=O)NCCc2cc3ccccc3s2)Cc2ccccc2C1 [Example 30, 2-[2-[2-(benzothiophen-2-yl)ethylcarbamoyl]indan-2-yl]acetic acid] | 2 to 10 µM | 15 to 30% |
| COc1ccc2nc(CNC(=O)C3(CC(=O)O)Cc4ccccc4C3)sc2c1 [Example 32, 2-[2-[(6-methoxy-1,3-benzothiazol-2-yl)methylcarbamoyl]indan-2-yl]acetic acid] | < 0.3 µM | > 60% |
| O=C(O)CC1(C(=O)N[C@H](CO)Cc2c[nH]c3ccccc23)Cc2ccccc2C1 [Example 33, (2-{[(2S)-1-hydroxy-3-(1H-indol-3-yl)propan-2-yl]carbamoyl}-1,3-dihydroinden-2-yl)acetic acid] | 0.3 to 2 µM | 30 to 60% |
| CN(C)CC#Cc1ccc2nc(CNC(=O)C3(CC(=O)O)Cc4ccccc4C3)sc2c1 [Example 35, 2-[2-[[6-[3-(dimethylamino)prop-1-ynyl]-1,3-benzothiazol-2-yl]methylcarbamoyl]indan-2-yl]acetic acid] | < 0.3 µM | > 60% |
| CN(C)CCCc1ccc2nc(CNC(=O)C3(CC(=O)O)Cc4ccccc4C3)sc2c1 [Example 36, 2-[2-[[6-[3-(dimethylamino)propyl]-1,3-benzothiazol-2-yl]methylcarbamoyl]indan-2-yl]acetic acid] | < 0.3 µM | > 60% |
| C[N+](C)(C)CCCc1ccc2nc(CNC(=O)C3(CC(=O)O)Cc4ccccc4C3)sc2c1 [Example 37, 3-[2-[[[2-(carboxymethyl)indane-2-carbonyl]amino]methyl]-1,3-benzothiazol-6-yl]propyl-trimethyl-ammonium] | 0.3 to 2 µM | > 60% |
| NCCCc1ccc2nc(CNC(=O)C3(CC(=O)O)Cc4ccccc4C3)sc2c1 [Example 38, 2-[2-[[6-(3-aminopropyl)-1,3-benzothiazol-2-yl]methylcarbamoyl]indan-2-yl]acetic acid] | 0.3 to 2 µM | > 60% |
| NC/C=C/c1ccc2nc(CNC(=O)C3(CC(=O)O)Cc4ccccc4C3)sc2c1 [Example 39, 2-[2-[[6-[(E)-3-aminoprop-1-enyl]-1,3-benzothiazol-2-yl]methylcarbamoyl]indan-2-yl]acetic acid] | < 0.3 µM | > 60% |
| NCCCc1ccc2sc(CNC(=O)C3(CC(=O)O)Cc4ccccc4C3)nc2c1 [Example 40, 2-[2-[[5-(3-aminopropyl)-1,3-benzothiazol-2-yl]methylcarbamoyl]indan-2-yl]acetic acid] | < 0.3 µM | > 60% |
| O=C(O)CC1(C(=O)NCc2nc3ccc(N4CCNCC4)cc3s2)Cc2ccccc2C1 [Example 41, 2-[2-[(6-piperazin-1-yl-1,3-benzothiazol-2-yl)methylcarbamoyl]indan-2-yl]acetic acid] | 0.3 to 2 µM | 30 to 60% |
| CN1CCN(c2ccc3nc(CNC(=O)C4(CC(=O)O)Cc5ccccc5C4)sc3c2)CC1 [Example 42, 2-[2-[[6-(4-methylpiperazin-1-yl)-1,3-benzothiazol-2-yl]methylcarbamoyl]indan-2-yl]acetic acid] | 0.3 to 2 µM | > 60% |
| C[N+]1(C)CCN(c2ccc3nc(CNC(=O)C4(CC(=O)O)Cc5ccccc5C4)sc3c2)CC1 [Example 43, 2-[2-[[6-(4,4-dimethylpiperazin-4-ium-1-yl)-1,3-benzothiazol-2-yl]methylcarbamoyl]indan-2-yl]acetic acid] | 0.3 to 2 µM | 30 to 60% |
